Data from US20140120060A1, “TREATMENT OF RHEUMATOID ARTHRITIS AND ASTHMA USING PI3 KINASE INHIBITORS” (INFINITY PHARMACEUTICALS, INC., priority 2012, published 2014).
Read-outs that look alike come from different tables or passages of the source.

What was measured:
[1] = tested on: TL2/TLR6; assay: PAM2CSK4 induced cytokine production in PBMCs; type: cell-based, human
Description: (§1) These experiments were conducted using PBMCs.
PAM2CSK4 signals through TL2/TLR6, which plays a role in atherosclerosis, colitis, ischemic injury, e.g., cardiac events and stroke.

[2] = tested on: developing adjuvant arthritis; assay: Freund's complete adjuvant induced rat model of arthritis; type: in vivo
Text: Freund's complete adjuvant induced arthritis in the rat is an experimental model of polyarthritis that has been widely used for nonclinical testing of numerous anti-arthritic agents that are either under nonclinical or clinical investigation, or are currently used as therapeutics in this disease.

[3] = tested on: LPS-induced pulmonary inflammation; assay: Murine model of LPS-induced lung inflammation; type: in vivo, mice; details: 3 mg/kg PO 60 minutes prior to LPS; 6 h after challenge
Description: Multiple parameters of pulmonary inflammation were determined 6 h after LPS challenge. Instillation of LPS induced significant influx of leukocytes, mostly neutrophils, into the airways, as assessed by counting the number of cells in the bronchoalveolar lavage (BAL) fluid.

[4] = 13-week repeat-dose safety study in cynomolgus monkeys; details: both sexes, cynomolgus monkey, in vivo, oral, Day 91, combined sexes, 5 mg/kg/day, read-out: mean AUC0-24 hr at the NOAEL
Description: (§2) The no observed adverse effect level (NOAEL) in the 13-week rat study was 25 mg/kg/day (150 mg/m^2/day) and the NOAEL in the 13-week monkey study was 5 mg/kg/day (60 mg/m^2/day). On Day 91, the mean AUC0-24 hr values for combined sexes at the NOAELs were 14150 ng*h/mL in the rat, and 4015 ng*h/mL in the monkey.

[5] = In vitro genetic toxicity studies
[6] = Plasma protein binding, monkey plasma; type: in vitro ADME; details: 100 μM (41700 ng/mL)
Text: (§3) […]. […] […].

[7] = Plasma protein binding, rat plasma; type: in vitro ADME; details: 100 μM (41700 ng/mL)
Text: as §3

[8] = tested on: DTH ear swelling; assay: Murine model of delayed type hypersensitivity (DNFB); type: in vivo
Description: The animals were subsequently challenged with DNFB on the pinna of the ear on day 5 to initiate an inflammatory reaction that was measured 24 hours later.

[9] = Pharmacokinetics in Sprague-Dawley rats; type: in vivo, rat
[10] = 13-week repeat-dose safety study in rats; details: both sexes, in vivo, oral; rat, Day 91, combined sexes, 25 mg/kg/day; read-out: mean AUC0-24 hr at the NOAEL
Description: as §2

[11] = In vivo rat micronucleus assay
[12] = biological target: PI3K δ (Homo sapiens, UniProt O00329); assay: In vitro PI3K δ inhibition (lipid kinase assay, TLC or HTRF); details: selectivity
Chain of PI3K δ (O00329 whole entry): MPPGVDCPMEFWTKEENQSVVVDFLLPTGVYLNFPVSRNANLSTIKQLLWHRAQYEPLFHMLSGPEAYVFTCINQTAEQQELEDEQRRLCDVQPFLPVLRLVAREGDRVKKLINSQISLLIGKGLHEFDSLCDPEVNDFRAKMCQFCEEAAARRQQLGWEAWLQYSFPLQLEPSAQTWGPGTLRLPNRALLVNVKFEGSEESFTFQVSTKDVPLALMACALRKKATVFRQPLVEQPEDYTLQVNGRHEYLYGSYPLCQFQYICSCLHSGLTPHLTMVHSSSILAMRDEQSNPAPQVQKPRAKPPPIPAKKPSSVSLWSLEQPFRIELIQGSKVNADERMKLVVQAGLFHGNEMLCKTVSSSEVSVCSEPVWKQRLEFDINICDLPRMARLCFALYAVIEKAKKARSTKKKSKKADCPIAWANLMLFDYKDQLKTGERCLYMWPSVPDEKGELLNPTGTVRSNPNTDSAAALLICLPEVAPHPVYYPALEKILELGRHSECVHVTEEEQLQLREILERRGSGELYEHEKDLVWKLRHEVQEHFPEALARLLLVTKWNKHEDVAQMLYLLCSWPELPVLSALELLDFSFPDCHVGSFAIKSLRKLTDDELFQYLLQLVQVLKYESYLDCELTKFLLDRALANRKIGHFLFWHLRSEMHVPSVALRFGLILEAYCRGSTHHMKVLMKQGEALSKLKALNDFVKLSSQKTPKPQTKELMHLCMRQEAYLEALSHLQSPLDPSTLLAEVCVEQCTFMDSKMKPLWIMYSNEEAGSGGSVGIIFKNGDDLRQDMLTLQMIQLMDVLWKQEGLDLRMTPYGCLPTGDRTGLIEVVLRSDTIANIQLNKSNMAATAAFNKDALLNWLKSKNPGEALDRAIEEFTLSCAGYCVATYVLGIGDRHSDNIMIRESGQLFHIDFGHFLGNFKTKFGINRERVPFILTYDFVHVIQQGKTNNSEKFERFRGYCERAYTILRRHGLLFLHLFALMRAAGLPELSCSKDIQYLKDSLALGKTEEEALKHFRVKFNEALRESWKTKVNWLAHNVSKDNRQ
Chain of PI3K δ (P27986 whole entry partner): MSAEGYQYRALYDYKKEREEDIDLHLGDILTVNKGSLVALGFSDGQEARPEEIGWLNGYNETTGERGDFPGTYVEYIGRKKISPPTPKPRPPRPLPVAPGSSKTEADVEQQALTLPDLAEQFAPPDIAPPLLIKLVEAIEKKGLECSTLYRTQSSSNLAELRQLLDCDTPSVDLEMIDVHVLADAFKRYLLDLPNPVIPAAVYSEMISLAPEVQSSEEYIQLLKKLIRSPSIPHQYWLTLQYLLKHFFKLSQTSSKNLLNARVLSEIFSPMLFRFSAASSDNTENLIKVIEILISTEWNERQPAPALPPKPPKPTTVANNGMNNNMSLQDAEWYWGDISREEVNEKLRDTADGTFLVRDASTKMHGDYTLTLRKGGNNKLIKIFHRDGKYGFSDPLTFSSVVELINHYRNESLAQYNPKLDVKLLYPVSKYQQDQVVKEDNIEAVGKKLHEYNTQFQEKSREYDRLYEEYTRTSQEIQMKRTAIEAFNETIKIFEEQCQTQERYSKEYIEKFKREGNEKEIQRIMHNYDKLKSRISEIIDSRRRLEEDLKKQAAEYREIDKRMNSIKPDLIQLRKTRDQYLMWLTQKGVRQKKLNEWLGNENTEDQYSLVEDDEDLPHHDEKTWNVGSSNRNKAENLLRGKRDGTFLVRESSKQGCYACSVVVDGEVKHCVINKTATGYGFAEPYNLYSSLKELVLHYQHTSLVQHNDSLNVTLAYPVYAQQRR

[13] = tested on: central nervous system; assay: Neurofunctional study (FOB, motor activity) in Sprague-Dawley rat; details: male rats
[14] = tested on: PG-PS model of arthritis; assay: Rat mono-articular PG-PS model; type: in vivo
Description: Animals are initially randomized into groups based on body weight but any with no ankle swelling following priming are eliminated from the groups to be reactivated. 10/group are retained into the primary treatment groups. The remaining animals are the baseline controls (Group 1).
Rats that have ankle inflammation are allowed to recover for two weeks, and then the swelling is reactivated (day 0) by a tail vein injection of 0.5 ml of 0.4 mg/ml PG-PS. Treatment with the test compounds is given QD the day prior to reactivation on day 0 and then daily.
Animals have caliper measures and paw volumes taken of ankles on day −3 (prior to reactivation on day 0 in the AM) and then on days 1, 2, 3, 4 (2 hrs post-dose) to determine if any anti-inflammatory effects are present in treated rats.
Scoring of Joints: PGPS ankles or knees are given scores of 0-5 for inflammation and bone resorption according to the following criteria: […]

[15] = Plasma protein binding, human plasma; type: in vitro ADME
Text: as §3

[16] = tested on: Murine B-cell; assay: Murine B-cell proliferation; type: cell-based; details: Mus musculus
[17] = tested on: PBMCs; assay: LPS induced cytokine production in PBMCs; type: cell-based, human
Description: as §1

C[C@H](Nc1ncnc2[nH]cnc12)c1cc2cccc(Cl)c2c(=O)n1-c1ccccc1 [Compound 292]
PAM2CSK4 induced IL-1 production [1]: Inhibited
PAM2CSK4 induced IL-6 production [1]: Inhibited
PAM2CSK4 induced IL-8 production [1]: Inhibited
PAM2CSK4 induced TNF-α production [1]: Inhibited
reduction of final paw weights ([2]; 5 mg/kg BID): 30%
reduction of histopathologic bone resorption ([2]; 5 mg/kg BID): 72%
reduction of histopathologic inflammation ([2]; 5 mg/kg BID): 18%
inhibition of ankle diameter AUC (d7-14) increase ([2]; 5 mg/kg BID PO days 5-14): 24%
reduction of final paw weights ([2]; 10 mg/kg QD): 23%
reduction of histopathologic bone resorption ([2]; 10 mg/kg QD): 67%
reduction of histopathologic inflammation ([2]; 10 mg/kg QD): 15%
inhibition of ankle diameter AUC (d7-14) increase ([2]; 10 mg/kg QD PO days 5-14): 31%
reduction of final paw weights ([2]; 50 mg/kg QD): 98%
reduction of histopathologic bone resorption ([2]; 50 mg/kg QD): 100%
reduction of histopathologic inflammation ([2]; 50 mg/kg QD): 88%
inhibition of ankle diameter AUC (d7-14) increase ([2]; 50 mg/kg QD PO days 5-14): 95%
LPS-induced total leukocyte and neutrophil influx in BAL fluid [3]: inhibited
AUC(0-t) [4]: 4020 ng·h/mL
genetic toxicity [5]: no genetic toxicity
protein bound in monkey plasma [6]: 76.8%
protein bound in rat plasma [7]: 85.8%
ear swelling ([8]; 0.3, 1, 3 and 10 mg/kg PO): Dose dependent inhibition
inhibition of ear swelling vs vehicle control ([8]; highest dose group (10 mg/kg PO, 30 minutes prior to DNFB challenge)): approximately 50%
Foral ([9]; Sprague-Dawley rats, PO 10 mg/kg suspension): 57%
half-life ([9]; Sprague-Dawley, rat, in vivo, intravenous, 2 mg/kg): < 2 h
AUC(0-t) [10]: 14200 ng·h/mL
adverse effect in micronucleus assay [11]: no direct adverse effect
lower dose inhibiting PI3K-δ compared to PI3K-γ, PI3K-β or PI3K-α [12]: at least 10 fold
locomotor activity ([13]; 2 h after a 350 mg/kg dose): Significant decreases
effects on the central nervous system ([13]; dose levels ≦50 mg/kg): No effects
qualitative or quantitative FOB parameters ([13]; single oral dose up to 350 mg/kg, up to 24 h post-dose): no changes
inflammation when reactivated with PG-PS ([14]; FIG. 14A): dose-dependently controlled inflammation
joint pathology in PG-PS model ([14]; FIG. 14B): dose-dependently improved joint pathology
protein bound in human plasma [15]: 95%
protein bound in human plasma ([15]; 100 μM (41700 ng/mL)): 85.9%
EC50 [16]: 500 pM
LPS induced IL-1 production [17]: enhanced
LPS induced IL-6 production [17]: enhanced
LPS induced IL-8 production [17]: did not detectably affect
LPS induced TNF-α production [17]: enhanced
